In patent publication US10046060B2, “Co-administration of an agent linked to an internalization peptide with an anti-inflammatory” (NoNO Inc., priority 2007, dated 2018):
Entries after “also recorded” stand apart in the source; their conditions may differ. Ends that are not written are not given here.

Experiments:
[1] = tested on: Sprague-Dawley rats; experiment: Non-GLP blood pressure study in anesthetized rats at 50 mg/kg; assay type: in vivo, rat
Method: In one experiment, 5 male Sprague-Dawley rats received a 50 mg/kg Tat-NR2B9c bolus dose over 3 minutes. Blood pressure was monitored via a femora arterial catheter.

[2] = tested on: humans; experiment: Safety, Tolerability and Pharmacokinetic Study in humans: blood histamine; assay type: in vivo, human; conditions: for Average histamine level of subjects with >10 nmol/L / Maximum histamine level: 3.75 mg/kg
Method: We carried out a Safety, Tolerability and Pharmacokinetic Study of Tat-NR2B9c in humans. Subjects were either normal, healthy, non-smoking males or post-menopausal or surgically sterile female subjects with a minimum age of 18 years. The subjects were either administered Tat-NR2B9c, Lot #: 124-134-001B, or were given placebo (Phosphate Buffered Saline), Lot #: 124-134-001A, administered as an intravenous infusion (10±1 minutes). Four subjects were dosed in each of Cohorts 1 to 3, and 10 subjects were dosed in each of Cohorts 4 to 8. All 62 subjects completed the study. Treatment periods for each cohort were as follows: Cohort 1: Sep. 14, 2006; Cohort 2: Sep. 26, 2006; Cohort 3: Oct. 6, 2006; Cohort 4: Oct. 20, 2006; Cohort 5: Nov. 6, 2006; Cohort 6: Dec. 4, 2006; Cohort 7: Dec. 17, 2006; Cohort 8: Feb. 25, 2007.
During the study period, 11 blood samples were collected for pharmacokinetic analysis from each subject at the following timepoints: 0.00 (pre-dose), 0.08 (5 minutes), 0.17 to 0.25 (10 to 15 minutes, precisely at the end of each individual drug infusion), 0.33 (20 minutes), 0.50, 0.75, 1.00, 2.00, 6.00, 12.00, and 24.00 hours post-dose. In addition, 8 blood samples were collected for histamine analysis from each subject at the following timepoints: 0.00 (pre-dose), and at 0.08 (5 minutes), 0.17 (10 minutes), 0.25, 0.50, 1.00, 2.00, and 24.00 hours post-dose.

[3] = 10 minutes after start of administration
[4] = 15 minutes after start of administration

YGRKKRRQRRRKLSSIESDV [Tat-NR2B9c]
Mean arterial pressure ([1]; 50 mg/kg bolus over 3 minutes, all animals, FIG. 6): transient reductions in mean arterial pressure; also recorded: drop in blood pressure
Respiratory effects ([1]; rat, 50 mg/kg): decreased tidal volume, respiratory rate and derived minute volume
Average histamine level of subjects with >10 nmol/L [2, 3]: 24.3 nmol/L
Maximum histamine level [2, 3]: 39.8 nmol/L
Average histamine level of subjects with >10 nmol/L [2, 4]: 15.3 nmol/L
Maximum histamine level [2, 4]: 20.3 nmol/L
Number of Subjects with Histamine levels >10 nmol/L ([2]; NA-1 0.02 mg/kg (n = 2), Day 1, 0.00 hr): 0
Number of Subjects with Histamine levels >10 nmol/L ([2]; NA-1 0.02 mg/kg (n = 2), Day 1, 0.08 hr): 0
Number of Subjects with Histamine levels >10 nmol/L ([2]; NA-1 0.02 mg/kg (n = 2), Day 1, 0.17 hr): 0
Number of Subjects with Histamine levels >10 nmol/L ([2]; NA-1 0.02 mg/kg (n = 2), Day 1, 0.25 hr): 0
Number of Subjects with Histamine levels >10 nmol/L ([2]; NA-1 0.02 mg/kg (n = 2), Day 1, 0.50 hr): 0
Number of Subjects with Histamine levels >10 nmol/L ([2]; NA-1 0.02 mg/kg (n = 2), Day 1, 1.00 hr): 0
Number of Subjects with Histamine levels >10 nmol/L ([2]; NA-1 0.02 mg/kg (n = 2), Day 1, 2.00 hr): 0
Number of Subjects with Histamine levels >10 nmol/L ([2]; NA-1 0.02 mg/kg (n = 2), Day 1, 24.00 hr): 0
Number of Subjects with Histamine levels >10 nmol/L ([2]; NA-1 0.02 mg/kg (n = 2), Day 7): 0
Number of Subjects with Histamine levels >10 nmol/L ([2]; NA-1 0.02 mg/kg (n = 2), Day 14): 0
Number of Subjects with Histamine levels >10 nmol/L ([2]; NA-1 0.02 mg/kg (n = 2), Day 28 End-of-study): 0
Number of Subjects with Histamine levels >10 nmol/L ([2]; NA-1 0.02 mg/kg (n = 2), Screening): 0
Number of Subjects with Histamine levels >10 nmol/L ([2]; NA-1 0.08 mg/kg (n = 2), Day 1, 0.00 hr): 0
Number of Subjects with Histamine levels >10 nmol/L ([2]; NA-1 0.08 mg/kg (n = 2), Day 1, 0.08 hr): 0
Number of Subjects with Histamine levels >10 nmol/L ([2]; NA-1 0.08 mg/kg (n = 2), Day 1, 0.17 hr): 0
Number of Subjects with Histamine levels >10 nmol/L ([2]; NA-1 0.08 mg/kg (n = 2), Day 1, 0.25 hr): 0
Number of Subjects with Histamine levels >10 nmol/L ([2]; NA-1 0.08 mg/kg (n = 2), Day 1, 0.50 hr): 0
Number of Subjects with Histamine levels >10 nmol/L ([2]; NA-1 0.08 mg/kg (n = 2), Day 1, 1.00 hr): 0
Number of Subjects with Histamine levels >10 nmol/L ([2]; NA-1 0.08 mg/kg (n = 2), Day 1, 2.00 hr): 0
Number of Subjects with Histamine levels >10 nmol/L ([2]; NA-1 0.08 mg/kg (n = 2), Day 1, 24.00 hr): 0
Number of Subjects with Histamine levels >10 nmol/L ([2]; NA-1 0.08 mg/kg (n = 2), Day 7): 0
Number of Subjects with Histamine levels >10 nmol/L ([2]; NA-1 0.08 mg/kg (n = 2), Day 14): 0
Number of Subjects with Histamine levels >10 nmol/L ([2]; NA-1 0.08 mg/kg (n = 2), Day 28 End-of-study): 0
Number of Subjects with Histamine levels >10 nmol/L ([2]; NA-1 0.08 mg/kg (n = 2), Screening): 0
Number of Subjects with Histamine levels >10 nmol/L ([2]; NA-1 0.20 mg/kg (n = 2), Day 1, 0.00 hr): 0
Number of Subjects with Histamine levels >10 nmol/L ([2]; NA-1 0.20 mg/kg (n = 2), Day 1, 0.08 hr): 0
Number of Subjects with Histamine levels >10 nmol/L ([2]; NA-1 0.20 mg/kg (n = 2), Day 1, 0.17 hr): 0
Number of Subjects with Histamine levels >10 nmol/L ([2]; NA-1 0.20 mg/kg (n = 2), Day 1, 0.25 hr): 0
Number of Subjects with Histamine levels >10 nmol/L ([2]; NA-1 0.20 mg/kg (n = 2), Day 1, 0.50 hr): 0
Number of Subjects with Histamine levels >10 nmol/L ([2]; NA-1 0.20 mg/kg (n = 2), Day 1, 1.00 hr): 0
Number of Subjects with Histamine levels >10 nmol/L ([2]; NA-1 0.20 mg/kg (n = 2), Day 1, 2.00 hr): 0
Number of Subjects with Histamine levels >10 nmol/L ([2]; NA-1 0.20 mg/kg (n = 2), Day 1, 24.00 hr): 0
Number of Subjects with Histamine levels >10 nmol/L ([2]; NA-1 0.20 mg/kg (n = 2), Day 7): 0
Number of Subjects with Histamine levels >10 nmol/L ([2]; NA-1 0.20 mg/kg (n = 2), Day 14): 0
Number of Subjects with Histamine levels >10 nmol/L ([2]; NA-1 0.20 mg/kg (n = 2), Day 28 End-of-study): 0
Number of Subjects with Histamine levels >10 nmol/L ([2]; NA-1 0.20 mg/kg (n = 2), Screening): 0
Number of Subjects with Histamine levels >10 nmol/L ([2]; NA-1 0.375 mg/kg (n = 8), Day 1, 0.00 hr): 0
Number of Subjects with Histamine levels >10 nmol/L ([2]; NA-1 0.375 mg/kg (n = 8), Day 1, 0.08 hr): 0
Number of Subjects with Histamine levels >10 nmol/L ([2]; NA-1 0.375 mg/kg (n = 8), Day 1, 0.17 hr): 0
Number of Subjects with Histamine levels >10 nmol/L ([2]; NA-1 0.375 mg/kg (n = 8), Day 1, 0.25 hr): 0
Number of Subjects with Histamine levels >10 nmol/L ([2]; NA-1 0.375 mg/kg (n = 8), Day 1, 0.50 hr): 0
Number of Subjects with Histamine levels >10 nmol/L ([2]; NA-1 0.375 mg/kg (n = 8), Day 1, 1.00 hr): 0
Number of Subjects with Histamine levels >10 nmol/L ([2]; NA-1 0.375 mg/kg (n = 8), Day 1, 2.00 hr): 0
Number of Subjects with Histamine levels >10 nmol/L ([2]; NA-1 0.375 mg/kg (n = 8), Day 1, 24.00 hr): 0
Number of Subjects with Histamine levels >10 nmol/L ([2]; NA-1 0.375 mg/kg (n = 8), Day 7): 0
Number of Subjects with Histamine levels >10 nmol/L ([2]; NA-1 0.375 mg/kg (n = 8), Day 14): 0
Number of Subjects with Histamine levels >10 nmol/L ([2]; NA-1 0.375 mg/kg (n = 8), Day 28 End-of-study): 0
Number of Subjects with Histamine levels >10 nmol/L ([2]; NA-1 0.375 mg/kg (n = 8), Screening): 1
